This is an account of results in PMC9478340, “Inhibitors targeting the autophosphorylation of serine/threonine kinase of Streptococcus suis show potent antimicrobial activity” (Frontiers in Microbiology, 2022).

The structures appear in SMILES notation.

For the test, the target named is T1, serine/threonine kinase (ssSTK) (Streptococcus suis, UniProt A0A0H3MXV7).
T1 construct: gene SSUBM407_0373; 6 × his-tagged kinase domain of ssSTK (ssSTK^KD, pET28a-stk^KD) is the wild-type expression construct described; the assay text says 'purified ssSTK'
T1 sequence (A0A0H3MXV7 entry or part of it): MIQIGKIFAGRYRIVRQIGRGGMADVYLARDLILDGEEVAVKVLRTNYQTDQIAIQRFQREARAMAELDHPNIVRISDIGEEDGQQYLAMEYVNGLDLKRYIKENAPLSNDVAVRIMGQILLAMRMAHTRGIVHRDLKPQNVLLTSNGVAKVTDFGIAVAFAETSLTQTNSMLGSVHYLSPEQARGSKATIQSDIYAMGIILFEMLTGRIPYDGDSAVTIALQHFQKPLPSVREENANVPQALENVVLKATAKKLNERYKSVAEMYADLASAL
In words: Kinase-Glo ATP consumption assay of autophosphorylation; confirmed by anti-P-Thr western blot. It counts as biochemical.
A word on the IC50: it is the concentration that gives 50% inhibition. Lower therefore signals higher potency. As to `c1cc(Nc2cc(C3CC3)[nH]n2)nc(Nc2ccc3[nH]cnc3c2)n1` [APY29], the IC50 was determined as 10.1 µM.

For the compound `O=C(Nc1c[nH]nc1-c1nc2cc(CN3CCOCC3)ccc2[nH]1)NC1CC1` [AT9283], the IC50 came to 10.6 µM.

`COC(=O)[C@@]1(O)C[C@H]2O[C@]1(C)n1c3ccccc3c3c4c(c5c6ccccc6n2c5c31)C(=O)NC4` [K252a] gave a concentration for half-maximal inhibition (IC50) of 13.8 µM.

The compound `CN[C@@H]1C[C@H]2O[C@@](C)([C@@H]1OC)n1c3ccccc3c3c4c(c5c6ccccc6n2c5c31)C(=O)NC4` [Staurosporine] registered an IC50 of 8.97 µM.
